{"source": "patent US20230085307A1", "about": "“PYRIDAZINONE COMPOUND AND HERBICIDE” (NISSAN CHEMICAL CORPORATION, priority 2019, published 2023)", "key": {"[1]": {"tested_on": "lambsquarters", "assay": "Test Example 5: herbicidal effect by foliage application, plastic box (Table 20, symbol O)", "type": "in vivo, lambsquarters (Chenopodium album)", "conditions": "foliage application, AAH 320 g/ha, three weeks after application", "summary_of_the_method": "(§1)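 Plants were sown into sterilized diluvial soil under about 1.5 cm cover and kept in a greenhouse at 25° C. to 30° C. Fourteen days on, foliage received an even spray of the diluted emulsion. Herbicidal or crop effect was judged three weeks afterwards.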"}, "[2]": {"tested_on": "velvetleaf", "assay": "Test Example 4: herbicidal effect by soil treatment (Table 19, symbol M)", "type": "in vivo, velvetleaf (Abutilon theophrasti)", "conditions": "amount of applied herbicide 320 g/ha", "summary_of_the_method": "(§2)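 In this soil treatment, the formulated compound reached the seeds only through the soil: seeds were buried about 1.5 cm deep in sterilized diluvial soil, then the diluted emulsion was sprayed over the surface. After three weeks at 25° C. to 30° C. in a greenhouse, effects were graded on criteria from an earlier test.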"}, "[3]": {"tested_on": "barnyard grass", "assay": "Test Example 3: herbicidal effect by foliage application, Wagner pot (Table 18, symbol H)", "type": "in vivo, barnyard grass (Echinochloa crus-galli)", "conditions": "320 g/ha", "summary_of_the_method": "(§3)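 Plants were sown in alluvial soil held under 0.1–0.5 cm standing water and grown 14 days in a greenhouse at 25–30 °C. An emulsifiable formulation, water-diluted to the set dose, was then sprayed onto the foliage, and effects were scored three weeks later using previously defined criteria.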"}, "[4]": {"tested_on": "lambsquarters", "assay": "Test Example 4: herbicidal effect by soil treatment (Table 19, symbol O)", "type": "in vivo, lambsquarters (Chenopodium album)", "conditions": "amount of applied herbicide 320 g/ha", "summary_of_the_method": "as §2"}, "[5]": {"tested_on": "blackgrass", "assay": "Test Example 4: herbicidal effect by soil treatment (Table 19, symbol J)", "type": "in vivo, blackgrass (Alopecurus myosuroides)", "conditions": "amount of applied herbicide 320 g/ha", "summary_of_the_method": "as §2"}, "[6]": {"tested_on": "Chinese sprangletop", "assay": "Test Example 3: herbicidal effect by foliage application, Wagner pot (Table 18, symbol D)", "type": "in vivo, chinese sprangletop (Leptochloa chinensis)", "conditions": "320 g/ha", "summary_of_the_method": "as §3"}, "[7]": {"tested_on": "blackgrass", "assay": "Test Example 5: herbicidal effect by foliage application, plastic box (Table 20, symbol J)", "type": "in vivo, blackgrass (Alopecurus myosuroides)", "conditions": "foliage application, AAH 320 g/ha, three weeks after application", "summary_of_the_method": "as §1"}, "[8]": {"tested_on": "green foxtail", "assay": "Test Example 4: herbicidal effect by soil treatment (Table 19, symbol G)", "type": "in vivo, green foxtail (Setaria viridis)", "conditions": "amount of applied herbicide 320 g/ha", "summary_of_the_method": "as §2"}, "[9]": {"tested_on": "wild oat", "assay": "Test Example 5: herbicidal effect by foliage application, plastic box (Table 20, symbol I)", "type": "in vivo, wild oat (Avena fatua)", "conditions": "foliage application, AAH 320 g/ha, three weeks after application", "summary_of_the_method": "as §1"}, "[10]": {"tested_on": "barnyard grass", "assay": "Test Example 5: herbicidal effect by foliage application, plastic box (Table 20, symbol H)", "type": "in vivo, barnyard grass (Echinochloa crus-galli)", "conditions": "foliage application, AAH 320 g/ha, three weeks after application", "summary_of_the_method": "as §1"}, "[11]": {"tested_on": "windgrass", "assay": "Test Example 4: herbicidal effect by soil treatment (Table 19, symbol L)", "type": "in vivo, windgrass (Apera spica-venti)", "conditions": "amount of applied herbicide 320 g/ha", "summary_of_the_method": "as §2"}, "[12]": {"tested_on": "chickweed", "assay": "Test Example 5: herbicidal effect by foliage application, plastic box (Table 20, symbol P)", "type": "in vivo, common chickweed (Stellaria media)", "conditions": "foliage application, AAH 320 g/ha, three weeks after application", "summary_of_the_method": "as §1"}, "[13]": {"tested_on": "false cleavers", "assay": "Test Example 4: herbicidal effect by soil treatment (Table 19, symbol Q)", "type": "in vivo, false cleavers (Galium spurium)", "conditions": "amount of applied herbicide 320 g/ha", "summary_of_the_method": "as §2"}, "[14]": {"tested_on": "windgrass", "assay": "Test Example 5: herbicidal effect by foliage application, plastic box (Table 20, symbol L)", "type": "in vivo, windgrass (Apera spica-venti)", "conditions": "foliage application, AAH 320 g/ha, three weeks after application", "summary_of_the_method": "as §1"}, "[15]": {"tested_on": "chickweed", "assay": "Test Example 4: herbicidal effect by soil treatment (Table 19, symbol P)", "type": "in vivo, common chickweed (Stellaria media)", "conditions": "amount of applied herbicide 320 g/ha", "summary_of_the_method": "as §2"}, "[16]": {"tested_on": "Italian ryegrass", "assay": "Test Example 5: herbicidal effect by foliage application, plastic box (Table 20, symbol K)", "type": "in vivo, Italian ryegrass (Lolium multiflorum)", "conditions": "foliage application, AAH 320 g/ha, three weeks after application", "summary_of_the_method": "as §1"}, "[17]": {"tested_on": "southern crabgrass", "assay": "Test Example 4: herbicidal effect by soil treatment (Table 19, symbol F)", "type": "in vivo, southern crabgrass (Digitaria ciliaris)", "conditions": "amount of applied herbicide 320 g/ha", "summary_of_the_method": "as §2"}, "[18]": {"tested_on": "Italian ryegrass", "assay": "Test Example 4: herbicidal effect by soil treatment (Table 19, symbol K)", "type": "in vivo, Italian ryegrass (Lolium multiflorum)", "conditions": "amount of applied herbicide 320 g/ha", "summary_of_the_method": "as §2"}, "[19]": {"tested_on": "barnyard grass", "assay": "Test Example 4: herbicidal effect by soil treatment (Table 19, symbol H)", "type": "in vivo, barnyard grass (Echinochloa crus-galli)", "conditions": "amount of applied herbicide 320 g/ha", "summary_of_the_method": "as §2"}, "[20]": {"tested_on": "persian speedwell", "assay": "Test Example 4: herbicidal effect by soil treatment (Table 19, symbol R)", "type": "in vivo, Persian speedwell (Veronica persica)", "conditions": "amount of applied herbicide 320 g/ha", "summary_of_the_method": "as §2"}, "[21]": {"tested_on": "wild oat", "assay": "Test Example 4: herbicidal effect by soil treatment (Table 19, symbol I)", "type": "in vivo, wild oat (Avena fatua)", "conditions": "amount of applied herbicide 320 g/ha", "summary_of_the_method": "as §2"}, "[22]": {"tested_on": "persian speedwell", "assay": "Test Example 5: herbicidal effect by foliage application, plastic box (Table 20, symbol R)", "type": "in vivo, Persian speedwell (Veronica persica)", "conditions": "foliage application, AAH 320 g/ha, three weeks after application", "summary_of_the_method": "as §1"}, "[23]": {"tested_on": "rice flat sedge", "assay": "Test Example 3: herbicidal effect by foliage application, Wagner pot (Table 18, symbol E)", "type": "in vivo, rice flat sedge (Cyperus iria)", "conditions": "320 g/ha", "summary_of_the_method": "as §3"}, "[24]": {"tested_on": "green foxtail", "assay": "Test Example 5: herbicidal effect by foliage application, plastic box (Table 20, symbol G)", "type": "in vivo, green foxtail (Setaria viridis)", "conditions": "foliage application, AAH 320 g/ha, three weeks after application", "summary_of_the_method": "as §1"}, "[25]": {"tested_on": "southern crabgrass", "assay": "Test Example 5: herbicidal effect by foliage application, plastic box (Table 20, symbol F)", "type": "in vivo, southern crabgrass (Digitaria ciliaris)", "conditions": "foliage application, AAH 320 g/ha, three weeks after application", "summary_of_the_method": "as §1"}, "[26]": {"tested_on": "velvetleaf", "assay": "Test Example 5: herbicidal effect by foliage application, plastic box (Table 20, symbol M)", "type": "in vivo, velvetleaf (Abutilon theophrasti)", "conditions": "foliage application, AAH 320 g/ha, three weeks after application", "summary_of_the_method": "as §1"}, "[27]": {"tested_on": "redroot pigweed", "assay": "Test Example 4: herbicidal effect by soil treatment (Table 19, symbol N)", "type": "in vivo, redroot pigweed (Amaranthus retroflexus)", "conditions": "amount of applied herbicide 320 g/ha", "summary_of_the_method": "as §2"}, "[28]": {"tested_on": "false cleavers", "assay": "Test Example 5: herbicidal effect by foliage application, plastic box (Table 20, symbol Q)", "type": "in vivo, false cleavers (Galium spurium)", "conditions": "foliage application, AAH 320 g/ha, three weeks after application", "summary_of_the_method": "as §1"}}, "data": [{"smiles": "Cc1nn(C)c(=O)c(-c2c(-c3ccc4c(c3)OC(F)(F)O4)sc3ccccc23)c1O", "note": "[1-099]", "values": [{"measurement": "O: lambsquarters, herbicidal effect", "setting": "[1]", "value": "3 (Herbicidal rate of 40% or more and less than 70%)"}, {"measurement": "herbicidal effect rating, M: velvetleaf", "setting": "[2]", "value": "0 (Herbicidal rate of 5% or less (almost no effect))"}, {"measurement": "herbicidal effect on H (barnyard grass), rating 0-5", "setting": "[3]", "value": "0 (Herbicidal rate of 5% or less (almost no effect))"}, {"measurement": "herbicidal effect rating, O: lambsquarters", "setting": "[4]", "value": "0 (Herbicidal rate of 5% or less (almost no effect))"}, {"measurement": "herbicidal effect rating, J: blackgrass", "setting": "[5]", "value": "0 (Herbicidal rate of 5% or less (almost no effect))"}, {"measurement": "herbicidal effect on D (Chinese sprangletop), rating 0-5", "setting": "[6]", "value": "0 (Herbicidal rate of 5% or less (almost no effect))"}, {"measurement": "J: blackgrass, herbicidal effect", "setting": "[7]", "value": "1 (Herbicidal rate of 5% or more and less than 20%)"}, {"measurement": "herbicidal effect rating, G: green foxtail", "setting": "[8]", "value": "0 (Herbicidal rate of 5% or less (almost no effect))"}, {"measurement": "I: wild oat, herbicidal effect", "setting": "[9]", "value": "0 (Herbicidal rate of 5% or less (almost no effect))"}, {"measurement": "H: barnyard grass, herbicidal effect", "setting": "[10]", "value": "0 (Herbicidal rate of 5% or less (almost no effect))"}, {"measurement": "herbicidal effect rating, L: windgrass", "setting": "[11]", "value": "0 (Herbicidal rate of 5% or less (almost no effect))"}, {"measurement": "P: chickweed, herbicidal effect", "setting": "[12]", "value": "5 (Herbicidal rate of 90% or more (almost completely withered))"}, {"measurement": "herbicidal effect rating, Q: false cleavers", "setting": "[13]", "value": "2 (Herbicidal rate of 20% or more and less than 40%)"}, {"measurement": "L: windgrass, herbicidal effect", "setting": "[14]", "value": "0 (Herbicidal rate of 5% or less (almost no effect))"}, {"measurement": "herbicidal effect rating, P: chickweed", "setting": "[15]", "value": "4 (Herbicidal rate of 70% or more and less than 90%)"}, {"measurement": "K: Italian ryegrass, herbicidal effect", "setting": "[16]", "value": "3 (Herbicidal rate of 40% or more and less than 70%)"}, {"measurement": "herbicidal effect rating, F: southern crabgrass", "setting": "[17]", "value": "0 (Herbicidal rate of 5% or less (almost no effect))"}, {"measurement": "herbicidal effect rating, K: Italian ryegrass", "setting": "[18]", "value": "0 (Herbicidal rate of 5% or less (almost no effect))"}, {"measurement": "herbicidal effect rating, H: barnyard grass", "setting": "[19]", "value": "0 (Herbicidal rate of 5% or less (almost no effect))"}, {"measurement": "herbicidal effect rating, R: persian speedwell", "setting": "[20]", "value": "5 (Herbicidal rate of 90% or more (almost completely withered))"}, {"measurement": "herbicidal effect rating, I: wild oat", "setting": "[21]", "value": "0 (Herbicidal rate of 5% or less (almost no effect))"}, {"measurement": "R: persian speedwell, herbicidal effect", "setting": "[22]", "value": "5 (Herbicidal rate of 90% or more (almost completely withered))"}, {"measurement": "herbicidal effect on E (rice flat sedge), rating 0-5", "setting": "[23]", "value": "5 (Herbicidal rate of 90% or more (almost completely withered))"}, {"measurement": "G: green foxtail, herbicidal effect", "setting": "[24]", "value": "0 (Herbicidal rate of 5% or less (almost no effect))"}, {"measurement": "F: southern crabgrass, herbicidal effect", "setting": "[25]", "value": "0 (Herbicidal rate of 5% or less (almost no effect))"}, {"measurement": "M: velvetleaf, herbicidal effect", "setting": "[26]", "value": "5 (Herbicidal rate of 90% or more (almost completely withered))"}, {"measurement": "herbicidal effect rating, N: redroot pigweed", "setting": "[27]", "value": "0 (Herbicidal rate of 5% or less (almost no effect))"}, {"measurement": "Q: false cleavers, herbicidal effect", "setting": "[28]", "value": "2 (Herbicidal rate of 20% or more and less than 40%)"}]}]}
